According to patent US20140050754A1, “IMMUNOGENIC CHIKUNGUNYA VIRUS PEPTIDES” (priority 2010, published 2014):

Columns and labels:
[1] = test system: E2EP3-specific IgG3 antibodies in pooled patients' plasma; assay: Affinity depletion of anti-E2EP3 antibodies, read by E2EP3 specific peptide-based ELISA; type: binding, human; details: pooled plasma median 10 days pio, relative to non-depleted samples
Experimental: (§1) For affinity depletion of human anti-E2EP3 antibodies, synthetic biotinylated E2EP3 peptide (EMC microcollections GmbH) was added at 450 ng/well to streptavidin-coated plates (Pierce) and incubated at room temperature for about 1 hour in PBS containing 0.1% Tween-20 (0.1% PBST). Human plasma samples were added and incubated for about 25 minutes at room temperature for absorption. The unbound portion was collected after 21 rounds of absorption. ELISA analysis was performed to verify the levels of the antibodies during affinity depletion.
Plasma samples (Median 10 days pio) were incubated with E2EP3 (K3, N5, K10), E2EP3 with double alanine substitution at lysine residues (K3A, N5, K10A) or triple alanine substitution at lysine and asparagine (K3A, N5A, K10A) peptides. E2EP3 specific peptide-based ELISA was performed to measure the depletion efficiency. Outputs were expressed as percentage control IgG3 titer from non-depleted samples. Data were presented as mean±SD. Examples were performed in triplicates.

[2] = test system: anti-CHIKV IgG3 antibodies in pooled patients' plasma; assay: Affinity depletion of anti-E2EP3 antibodies, read by virion-based ELISA; type: binding, human; details: pooled plasma median 10 days pio, whole virus ELISA, relative to non-depleted samples
Experimental: […]; 50 μl/well). Wells were blocked with PBST-milk (PBS, 0.05% Tween 20, 5% non-fat milk) and plates were incubated for about 1.5 hours at about 37° C. Plasma samples were then diluted 1:500, 1:2000 in PBST-milk and incubated 1 hour at about 37° C. HRP-conjugated mouse anti-human IgG, IgG1, IgG2, IgG3, IgG4 and IgM (Molecular Probes) were used to detect human antibodies bound to virus-coated wells. Reactions were developed using TMB substrate (Sigma-Aldrich) and stopped with stopping reagent (Sigma-Aldrich). The absorbance was measured at 450 nm. Healthy donor samples were used as controls. ELISA determinations were done in duplicates and the values plotted as means±standard error means (SEM).
as §1
In FIG. 9(c), depleted samples as described in FIG. 9(b) were subjected to anti-CHIKV IgG3 antibodies detection. Virion-based ELISA was performed as described to measure the depletion efficiency. Outputs were expressed as percentage control IgG3 titer from non-depleted samples. Data were presented as mean±SD. Examples were performed in triplicates.

[3] = test system: CHIKV (SGP11) infection of HEK 293T cells; assay: Affinity depletion of anti-E2EP3 antibodies, read by in vitro neutralization assay; type: cell-based, Chikungunya virus; details: plasma 1:500; about 20% with non-depleted plasma
Experimental: (§2) Neutralizing activity of CHIKV-infected patient samples were test in triplicates and were analyzed by immunofluorescence-based cell infection assay in HEK 293T cells, using Singapore strain CHIKV (SGP11). CHIKV were mixed at MOI 10 with diluted (1:100, 500 or 1,000) heat-inactivated human plasma and incubated for 2 hours at about 37° C. with gentle agitation (350 rpm). Virus-antibody mixtures were then added to HEK 293T cells seeded in 96-well plates and incubated for 1.5 hours at about 37° C. Virus inoculums (medium) were removed, and cells were replenished with DMEM medium supplied with 5% FBS and incubated for about 6 hours at about 37° C. before fixation with 4% paraformaldehyde followed by immunofluorescence quantification using the Cellomics ArrayScan V. The Cellomics ArrayScan. V was used as a complementary means of assessing neutralization capabilities of patients' plasma (same set-up as mentioned above), but involves an assessment endpoint at 6 hours post-infection (pi) to capture possible early protective responses against virus infection. Percentage infectivity was detected with High Content Screening and was calculated according to the equation: % Infectivity=100×(% responder from sero-neutralization group/% responder from virus infection group).
as §1
In FIG. 9(d), in vitro neutralizing activity of anti-E2EP3 antibodies against CHIKV-infected patients' plasma samples was observed. […] Outputs were expressed as percentage control infection. […]

[4] = test system: CHIKV (SGP11) infection of HEK 293T cells; assay: Peptide blocking assay with human plasma followed by sero-neutralization assay; type: cell-based, Chikungunya virus; details: patients' plasma pools 1:500; 20% without peptide
Experimental: as §2, with “group). […]” for “group).”
Outputs were expressed as percentage control infection. […]

[5] = test system: CHIKV infection of HEK 293T cells; assay: Peptide blocking assay with NHP plasma followed by in vitro neutralization assay; type: cell-based, Chikungunya virus; details: NHP plasma dilution series 1:100 to 1:3200, compared to untreated plasma
C57BL/6J mice = assay: KLH-E2EP3 vaccination of mice: E2EP3 specific peptide-based ELISA; type: in vivo; details: KLH-linked E2EP3 with CFA/IFA
Experimental: (§3) Lyophilized KLH-E2EP3 peptide was dissolved in DMSO (Sigma-Aldrich) to a working concentration of 5 mg/mL. Three-weeks old, female, C57BL/6J (sample size, n=7) were vaccinated subcutaneously in the abdominal flank with 100 μg of KLH-E2EP3 peptide prepared in 100 μl emulsion with 50% Complete Freund's Adjuvant (CFA) (Sigma-Aldrich) in PBS. Vaccinated mice were further boosted another two times at day 14 and day 21 with 50 μg of the peptide prepared in Incomplete Freund's Adjuvant (IFA) (Sigma-Aldrich). Control mice (n=7) were vaccinated with PBS/CFA and PBS/IFA on first vaccination and subsequent booster shots respectively. […] Viremia and degree of inflammation were monitored. […] Hind footpads of mice were measured daily using a vernier calliper from day 0 to day 14 post-infection. Measurements were done for the height (thickness) and the breadth of the foot and quantified as [height×breadth]. Degree of inflammation was expressed as relative increase in footpad size as compared to pre-infection with the following formula: [(day x−day 0)÷day 0] where x is the footpad measurements for each respective day post-infection.
Importantly, the sera obtained at 27 days post-vaccination were able to neutralize CHIKV-infection in vitro. In FIGS. 17(a) and 17(b), mouse anti-E2EP3 IgG antibodies were detected after the second and third vaccination. All outputs were expressed as mean±SD. […]

CHIKV infection in vitro = assay: In vitro neutralizing activity of E2EP3-vaccinated mouse sera; type: cell-based, Chikungunya virus; details: sera 27 days post-vaccination, dilution 1:100
Experimental: as §2, with “V was used as a complementary means of assessing neutralization capabilities of patients' plasma (same set-up as mentioned above), but involves an assessment endpoint at 6 hours post-infection (pi) to capture possible early protective responses against virus infection.” left out
Lyophilized KLH-E2EP3 peptide was dissolved in DMSO (Sigma-Aldrich) to a working concentration of 5 mg/mL. […] Viremia and degree of inflammation were monitored. […] Hind footpads of mice were measured daily using a vernier calliper from day 0 to day 14 post-infection. Measurements were done for the height (thickness) and the breadth of the foot and quantified as [height×breadth]. […]

CHIKV (SGP11) [6] = assay: CHIKV challenge of vaccinated mice: viremia by virus plaque assay; type: in vivo; details: 2 days post-challenge, challenge 30 days post-vaccination with 10^6 PFU s.c.; PBS control 4,500
Experimental: as §3
(§4) Mice were immunized with E2EP3 peptide complex to KLH or PBS Control emulsified with Complete Freund's Adjuvant (CFA) subcutaneously, and were boosted two more times with Incomplete Freund's Adjuvant (IFA). […] Outputs were expressed as percentage infection relative to PBS Control. […]

CHIKV (SGP11) [7] = assay: CHIKV challenge of vaccinated mice: footpad swelling (inflammation); type: in vivo; details: day 0 to day 14 post-challenge
Experimental: as §3, §4

Substance	E2EP3-specific IgG3 depleted from patients' plasma by surface-bound peptide [1] [%]	reduction of total anti-CHIKV IgG3 titer after depletion with peptide [2] [%]	virus infectivity (percentage control infection) with peptide-depleted plasma [3]	CHIKV infection (percentage control infection) after blocking with soluble E2EP3 peptide [4] [%]	effect of soluble peptide on neutralization by CHIKV-infected NHP plasma [5]	anti-E2EP3 IgG titer (C57BL/6J mice; 19 days post-vaccination, after 1st boost)	anti-E2EP3 IgG titer (C57BL/6J mice; 27 days post-vaccination, after 2nd boost)	reduction of infectivity compared to the PBS-vaccinated control group (CHIKV infection in vitro)	CHIKV viremia (CHIKV (SGP11) [6])	maximal footpad swelling of PBS-vaccinated group relative to E2EP3-vaccinated group (CHIKV (SGP11) [7])
K3A/K10A (STADNFNVYAATRPYLAHC)	30	40	only a gradual decrease of the neutralizing efficacy	–	–	–	–	–	–	–
K3A/N5A/K10A (STADAFNVYAATRPYLAHC)	15	20	only a gradual decrease of the neutralizing efficacy	–	–	–	–	–	–	–
STKDNFNVYKATRPYLAHC [E2EP3]	–	~80	more than 50%	~40	abrogated the inhibitory effect of monkey plasma samples significantly	Significant anti-E2EP3 titer	further increased	approximately 40%	2,000 pfu/mL	more than twice
